Assay results as given in ChEMBL document CHEMBL3804818 (J Med Chem, 2016).
pKd: −log10 of the molar value.

Key:
[1] = biological target: Heat shock protein HSP 90-alpha (Homo sapiens, UniProt P07900)
Endoplasmin = Endoplasmin (Homo sapiens, UniProt P14625)
Chain of Endoplasmin (P14625 whole entry): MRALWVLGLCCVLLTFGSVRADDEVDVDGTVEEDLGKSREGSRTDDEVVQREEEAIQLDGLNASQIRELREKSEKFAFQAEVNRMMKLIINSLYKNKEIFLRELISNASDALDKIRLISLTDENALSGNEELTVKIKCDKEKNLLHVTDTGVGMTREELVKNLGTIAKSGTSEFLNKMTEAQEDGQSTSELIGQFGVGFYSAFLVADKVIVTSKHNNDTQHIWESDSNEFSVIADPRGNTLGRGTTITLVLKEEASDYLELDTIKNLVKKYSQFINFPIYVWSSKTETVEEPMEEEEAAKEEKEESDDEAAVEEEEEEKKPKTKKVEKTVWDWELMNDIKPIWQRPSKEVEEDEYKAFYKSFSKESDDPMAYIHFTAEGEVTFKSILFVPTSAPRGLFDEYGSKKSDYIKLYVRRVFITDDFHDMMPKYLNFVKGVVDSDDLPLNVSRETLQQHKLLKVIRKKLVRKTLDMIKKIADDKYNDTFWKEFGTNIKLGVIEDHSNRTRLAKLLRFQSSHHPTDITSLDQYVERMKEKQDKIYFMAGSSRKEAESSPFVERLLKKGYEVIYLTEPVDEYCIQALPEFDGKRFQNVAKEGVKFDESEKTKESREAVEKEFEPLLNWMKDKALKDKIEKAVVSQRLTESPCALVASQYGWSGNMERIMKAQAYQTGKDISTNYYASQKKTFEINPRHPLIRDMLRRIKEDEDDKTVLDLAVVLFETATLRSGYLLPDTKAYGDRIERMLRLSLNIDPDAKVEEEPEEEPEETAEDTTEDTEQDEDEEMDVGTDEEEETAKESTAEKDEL

Row | Structure (SMILES) | pKd [1] | pKd (Endoplasmin)
1 | COC(=O)c1c(O)cc(O)c(Cl)c1CCc1nccn1Cc1ccccc1OC(C)C | 6.62 | 7.05
2 | COC(=O)c1c(O)cc(O)c(Cl)c1CCc1nccn1Cc1ccc(Cl)s1 | 4.46 | 6.03
3 | COC(=O)c1c(O)cc(O)c(Cl)c1CCc1nccn1Cc1ccccc1Cl | 5.07 | 5.86
4 | COC(=O)c1c(O)cc(O)c(Cl)c1CCc1nccn1Cc1ccco1 | 5.23 | 6.26
5 | CCOc1ccccc1Cn1ccnc1CCc1c(Cl)c(O)cc(O)c1C(=O)OC | 5.09 | 6.70
6 | COC(=O)c1c(O)cc(O)c(Cl)c1CCc1nccn1Cc1cccc(F)c1 | 5.02 | 5.82
7 | COC(=O)c1c(O)cc(O)c(Cl)c1CCc1nccn1Cc1ccccc1C | 4.17 | 5.52
8 | COC(=O)c1c(O)cc(O)c(Cl)c1CCc1nccn1Cc1ccc(C)cc1OC | 4.14 | 5.63
9 | COC(=O)c1c(O)cc(O)c(Cl)c1CCc1nccn1Cc1ccccn1 | 5.00 | 5.31
10 | CCc1ccccc1Cn1ccnc1CCc1c(Cl)c(O)cc(O)c1C(=O)OC | 4.41 | 6.09
11 | CCc1ccsc1Cn1ccnc1CCc1c(Cl)c(O)cc(O)c1C(=O)OC | 5.16 | 6.14
12 | COC(=O)c1c(O)cc(O)c(Cl)c1CCc1nccn1Cc1ccc(Cl)cc1 | – | 6.09
13 | COC(=O)c1c(O)cc(O)c(Cl)c1CCc1nccn1Cc1ccoc1 | 5.42 | 5.82
14 | COC(=O)c1c(O)cc(O)c(Cl)c1CCc1nccn1Cc1ccc(OC)cc1 | < 3.82 | 5.16
15 | COC(=O)c1c(O)cc(O)c(Cl)c1CCc1nccn1Cc1ccccc1C(F)(F)F | 4.71 | 5.82
16 | COC(=O)c1c(O)cc(O)c(Cl)c1CCc1nccn1Cc1ccno1 | 6.09 | 6.40
17 | COC(=O)c1c(O)cc(O)c(Cl)c1CCc1nccn1Cc1cncnc1 | 5.00 | 5.04
18 | COC(=O)c1c(O)cc(O)c(Cl)c1CCc1nccn1Cc1cc(Cl)cs1 | 5.74 | 6.17
19 | COC(=O)c1c(O)cc(O)c(Cl)c1CCc1nccn1Cc1cccnc1 | – | 5.39

Second part, the molecule after the results:

Row | pKd [1] | pKd (Endoplasmin) | Structure (SMILES)
20 | 4.44 | 6.12 | C=Cc1ccsc1Cn1ccnc1CCc1c(Cl)c(O)cc(O)c1C(=O)OC
21 | 5.50 | 6.12 | COC(=O)c1c(O)cc(O)c(Cl)c1CCc1nccn1Cc1sccc1Cl
22 | 5.18 | 5.67 | COC(=O)c1c(O)cc(O)c(Cl)c1CCc1nccn1Cc1ccsc1
23 | 4.27 | 5.89 | COC(=O)c1c(O)cc(O)c(Cl)c1CCc1nccn1Cc1ccccc1OC
24 | – | 5.63 | C=Cc1ccoc1Cn1ccnc1CCc1c(Cl)c(O)cc(O)c1C(=O)OC
25 | 4.80 | 5.60 | COC(=O)c1c(O)cc(O)c(Cl)c1CCc1nccn1Cc1nccs1
26 | 5.41 | 6.33 | COC(=O)c1c(O)cc(O)c(Cl)c1CCc1nccn1Cc1cccs1
27 | – | 6.19 | COC(=O)c1c(O)cc(O)c(Cl)c1CCc1nccn1Cc1ccc(C)o1
28 | 4.94 | 5.87 | COC(=O)c1c(O)cc(O)c(Cl)c1CCc1nccn1Cc1ccccc1F
29 | – | 5.49 | COC(=O)c1c(O)cc(O)c(Cl)c1CCc1nccn1Cc1ccc(F)cc1
30 | 5.64 | 6.60 | CCCOc1ccccc1Cn1ccnc1CCc1c(Cl)c(O)cc(O)c1C(=O)OC
31 | 5.04 | 6.46 | COC(=O)c1c(O)cc(O)c(Cl)c1CCc1nccn1Cc1oc(C)cc1C
32 | 5.29 | 6.17 | COC(=O)c1c(O)cc(O)c(Cl)c1CCc1nccn1Cc1ccc(C)s1
33 | 4.60 | 6.14 | COC(=O)c1c(O)cc(O)c(Cl)c1CCc1nccn1Cc1ccc(C)cc1
34 | 4.80 | 5.85 | C#Cc1ccc(Cn2ccnc2CCc2c(Cl)c(O)cc(O)c2C(=O)OC)cc1
35 | 4.74 | 5.33 | COC(=O)c1c(O)cc(O)c(Cl)c1CCc1nccn1Cc1ccc(C#N)cc1
36 | – | 5.80 | COC(=O)c1c(O)cc(O)c(Cl)c1CCc1nccn1Cc1ccccc1Br
